Experimental data reported in patent US8748088B2, “Methods of monitoring treatment effectiveness in HIV-infected patients receiveing intensified HAART regimens by measuring episomal 2-LTR circles” (University of Massachusetts, priority 2009, dated 2014).

Tests used:
HIV-1 2-LTR circles = experiment: Real-time PCR quantification of episomal HIV-1 DNA (2-LTR circles) in PBMCs of HAART-suppressed patients intensified with raltegravir; assay type: in vivo
Excerpt: (§1) A total of 69 patients with undetectable plasma viremia (viral load <50 HIV-1 RNA copies/ml) for at least one year were included in this study. All patients were on a suppressive HAART regimen that included 2 nucleoside reverse transcriptase inhibitors, and either a protease inhibitor or a non-nucleoside reverse transcriptase inhibitor. A total of 45 patients were randomized to intensify their HAART with the integrase inhibitor raltegravir for 12 weeks, and 24 patients were included as a control arm. One patient in the control group was lost to follow-up before study initiation. […]
The samples included in this study were drawn from HIV-1 infected patients who were longitudinally monitored for up to 12 weeks. […]
In the formation of 2-LTR circles, U3 and U5 sequences within the 5′ and 3′ LTRs ligate to form a unique U3-U5 circle junction that is not represented in other forms of viral cDNA (FIG. 1A). Therefore, 2-LTR circles were specifically measured by real-time PCR with primers flanking the 2-LTR circle junction. […]
Real-time PCR-based quantification of HIV-1 2-LTR circles was performed as follows. […] A single-step, real-time PCR was used to quantify 2-LTR circles in a 50 ul PCR reaction mix containing 25 ul of TaqMan® Universal PCR Master Mix (Applied Biosystems), 20 ul of extrachromosomal HIV-1 DNA and primers and probe that span the 2-LTR circle junction. […]

total HIV-1 DNA = experiment: Real-time PCR quantification of total HIV-1 DNA in PBMCs of intensified patients; assay type: in vivo; settings: throughout the 12 weeks of intensification, p=0.342 signed rank test
Excerpt: as §1
Total viral DNA forms (comprising unintegrated and integrated viral cDNA) were assayed using internal LTR primers (FIG. 2). […] Real-time PCR-based quantification of total HIV-1 DNA was performed as follows. […] A single-step real-time PCR was used to quantify total HIV-1 DNA in a 50 ul PCR reaction mix containing 25 ul of TaqMan® Universal PCR Master Mix (Applied Biosystems), 20 ul of chromosomal HIV-1 DNA and primers and probe that anneal in the 5′ and 3′ end of the R and U5 region of the LTR respectively, as has previously been described (Brussel and Sonigo, J Virol 77, 10119-10124 (2003)) using a forward primer; 5′ GG CTA ACT AGG GAA CCC ACT G 3′ (SEQ ID NO:4) and a reverse primer; 5′ GCTAGAGATTTTCCACACTGACTAA 3′ (SEQ ID NO:5). […] Amplification and calculation of copy number was determined as for 2-LTR DNA. […]

integrated HIV-1 DNA = experiment: Two-step Alu-LTR real-time PCR quantification of integrated HIV-1 DNA in PBMCs of intensified patients; assay type: in vivo; settings: for levels of integrated HIV-1 DNA: throughout the 12 weeks of intensification, p=0.768 signed rank test
Excerpt: A total of 69 patients with undetectable plasma viremia (viral load <50 HIV-1 RNA copies/ml) for at least one year were included in this study. All patients were on a suppressive HAART regimen that included 2 nucleoside reverse transcriptase inhibitors, and either a protease inhibitor or a non-nucleoside reverse transcriptase inhibitor. A total of 45 patients were randomized to intensify their HAART with the integrase inhibitor raltegravir for 12 weeks, and 24 patients were included as a control arm. One patient in the control group was lost to follow-up before study initiation. A second patient also in this group, who had two consecutive viral load measurements at weeks 12 and 24 (90 and 63 HIV-1 copies/mL respectively), was excluded for further analysis.
HIV-1 DNA purification was isolated as previously described (Hunt et al., J Infect Dis 187, 1534-1543 (2003)) with some modifications. […]
Real-time PCR-based quantification of integrated HIV-1 DNA was performed as follows. […] A two-step real-time PCR was used to quantitate integrated HIV-1 DNA using Alu-LTR primers as has previously been described (Brussel and Sonigo, J Virol 77, 10119-10124 (2003)). […] The fluorescence taqman probe was 5′[…] […]
Amplification and calculation of copy number was determined as for 2-LTR DNA. […] Integrated proviral DNA was measured using LTR-Alu primers. […]
(§2) Statistical analysis for the above-described experiments was performed as follows. […] In each group longitudinal changes of total and integrated HIV-1 and immune activation parameters were assessed through the signed rank test (paired test) comparing weeks 0 and 12, or weeks 0 and 24 respectively. Differences in proportions between groups were analyzed through the Pearson's chi square, considering the continuity correction or the Fisher's exact test, as appropriate. Within the intensified arm, differences in 2-LTR circles at weeks 2 and 4 compared to baseline were analyzed using Peto-Prentice-Wilcoxon test. […]

[1] = tested on: memory CD4+ and activated CD8+ T cells; experiment: Flow cytometry analysis of lymphocyte subsets and immune activation in fresh blood; assay type: in vivo, HIV-1 infected patients
Description: Analysis of lymphocyte subsets and immune activation was performed as follows. A total of 52 patients, 34 in the intensification group and 18 patients in the control group, had fresh blood samples available for flow cytometry analysis through the study period. Different combinations of antibodies were used to characterize different lymphocyte subsets: combination 1 was designed to evaluate naïve/memory subsets and contained CD45RA-FITC, CD31-PE, CD38-PerCP, CD3-APC-Cy7, CD4-APC and CD8-PE-Cy7; combination 2 was designed to evaluate the activation of CD8 T cells and contained HLA-DR-FITC, PD-1-PE, CD38-PerCP, CD45RO-APC, CD3-APC-Cy7 and CD8-PE-Cy7. Controls with combinations of CD3-APC-Cy7, CD4-APC and CD8-PE-Cy7 antibodies were performed for all samples. All antibodies were obtained from Becton Dickinson. Briefly, 20 ul of fresh whole blood was incubated with antibodies for 15 min at room temperature with the different antibody combinations in V-bottom 96-well plates. Red cells were lysed using the BD FACs lysing solution (Becton Dickinson), washed once with PBS and resuspended in PBS containing 1% formaldehyde. Acquisition of flow cytometry data was performed on an LSRII flow cytometer (Becton Dickinson) coupled with a HTS loader. At least 30,000 lymphocytes were collected for each sample. Analyses were performed with FlowJo software (Tree Star Inc.).
as §2

[2] = raltegravir-intensified group as a whole, throughout the study period (weeks 0-24)

Cc1nnc(C(=O)NC(C)(C)c2nc(C(=O)NCc3ccc(F)cc3)c(O)c(=O)n2C)o1 [raltegravir]
patients with detectable 2-LTR circles (active replication revealed) (HIV-1 2-LTR circles; HAART intensified with raltegravir for 12 weeks, n=45, any time point during the study, 13/45, control 0/22, p=0.003): 29% | change in 2-LTR circles compared to baseline (HIV-1 2-LTR circles; intensification group, weeks 2 and 4 vs baseline (p=0.036 and p=0.023), subsequent decrease afterwards): significant and transient increase in 2-LTR circles | levels of total HIV-1 DNA (total HIV-1 DNA): remained stable | levels of total HIV-1 DNA (total HIV-1 DNA; listed as Raltegravir): did not cause significant fluctuations | patients from whom integrated HIV-1 DNA was amplified (integrated HIV-1 DNA; intensified patients 39/45, any time point after initiation of the study): 87% | levels of integrated HIV-1 DNA (integrated HIV-1 DNA): remained stable | levels of integrated HIV-1 DNA (integrated HIV-1 DNA; listed as Raltegravir): did not cause significant fluctuations | immune activation ([1]; patients in which raltegravir impacted active replication (2-LTR+ subgroup, n=13)): normalization of immune activation | activated CD8+ T cells [1, 2]: no major changes | memory CD4+ T cells (CD4+CD45RA-) [1, 2]: no major changes
